Here are results for one compound from US20080280859A1, “GEMINI VITAMIN D3 COMPOUNDS AND METHODS OF USE THEREOF” (BioXell S.p.A., priority 2005, published 2008).

Usually IC50 stands for the concentration that gives 50% inhibition.

Marks after values point to notes of the source that are not given here.

One series relates to NHEK. The series can be described thus: Proliferation assay, normal human keratinocytes NHEK. Format: cell-based. Conditions: 72 h culture, CyQuant proliferation assay. Here is the method: (§1) Bladder cancer cell lines (T24, RT112, HT1376 and RT4 are human bladder cancer cell lines; NHEK are normal human keratinocytes) were obtained from the European Collection of Cell Cultures (Salisbury, UK). […] After a further 72 h of culture, cell proliferation was measured using a fluorescence-based proliferation assay kit. (CyQuant Cell Proliferation Assay Kit, Molecular Probes, Eugene, Oreg., USA). The IC50 was calculated from the regression curve of the titration data.

In the next series the test system is RT112. The series can be described thus: Proliferation assay, bladder cancer cell line RT112. Format: cell-based. The note with it: Homo sapiens, RT-112; 72 h culture, CyQuant proliferation assay. The procedure:
as §1

Series [1] deals with renin mRNA in As4.1hVDR cells. The series can be described thus: Renin suppression assay (renin mRNA, Northern blot). Conditions: 10^−10, 10^−9 and 10^−8 M, 24 hours.
A short description of the next series: in vivo. Conditions: female, C57BL/6, mouse, po.
The test system of the next series is RT4. The series can be described thus: Proliferation assay, bladder cancer cell line RT4. Format: cell-based. The note with it: Homo sapiens, RT-4; 72 h culture, CyQuant proliferation assay. Here is the method:
as §1

In the next series the test system is ECV. The series can be described thus: Proliferation assay, bladder cancer cell line ECV. Format: cell-based. The note with it: Homo sapiens; 72 h culture, CyQuant proliferation assay.
In the next series the test system is HT 1376. The series can be described thus: Proliferation assay, bladder cancer cell line HT 1376. The class given is cell-based. Conditions: Homo sapiens, 72 h culture, CyQuant proliferation assay. The procedure:
as §1

The target in another series is T1, VDR (Homo sapiens, UniProt P11473).
T1 sequence (P11473 1-427): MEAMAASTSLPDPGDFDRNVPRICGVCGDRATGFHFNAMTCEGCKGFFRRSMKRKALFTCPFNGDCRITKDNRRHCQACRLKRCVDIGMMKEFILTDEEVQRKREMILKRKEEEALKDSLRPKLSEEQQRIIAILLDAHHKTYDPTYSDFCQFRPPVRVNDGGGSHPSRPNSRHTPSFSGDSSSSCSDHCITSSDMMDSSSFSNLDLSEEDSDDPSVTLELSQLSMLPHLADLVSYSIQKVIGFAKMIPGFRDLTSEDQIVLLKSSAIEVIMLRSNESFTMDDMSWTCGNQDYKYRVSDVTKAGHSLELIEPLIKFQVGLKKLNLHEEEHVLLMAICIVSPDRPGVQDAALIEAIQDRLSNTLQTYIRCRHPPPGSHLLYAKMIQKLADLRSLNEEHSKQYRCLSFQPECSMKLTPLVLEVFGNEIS
The series can be described thus: VDR binding. Conditions: 1,25(OH)2D3 100.0.

Another series deals with HL-60 cells. The series can be described thus: HL-60 (CD14) cell differentiation. The class given is cell-based. The note with it: Homo sapiens, HL-60 cell differentiation, read-out: HL-60(CD14) ED50.
In a further series the test system is IFN-γ production. The series can be described thus: IFN-γ production in the mixed leukocyte response (MLR). Format: cell-based. Conditions: MLR of allogeneic PBMC, 5 days, ELISA. Here is the method: Immature dendritic cells (DC) were prepared as described in Romani, N. et al., J. Immunol. Meth.
On the technique in general: ELISA stands for enzyme-linked immunosorbent assay.

For the compound `C=C1/C(=C\C=C2/CCC[C@]3(C)[C@@H]([C@H](CCCC(C)(C)O)CC[C@@H](O)C(C)(C)O)CC[C@@H]23)C[C@@H](O)C[C@@H]1O` [Compound 3, 1,25-Dihydroxy-21-(2R,3-dihydroxy-3-methyl-butyl)-20R-cholecalciferol], the IC50 came to 46.5 µM in the series on NHEK; 25 µM in the series on RT112; 71 µM in the series on RT4; 57.9 µM in the series on ECV; 98 µM in the series on HT 1376; 0.066 nM with IFN-γ production (120 h, read-out: INF-γ IC50). Besides, the “renin suppression activity compared with 1,25(OH)2D3” value in series [1] is listed as “comparable to that of 1,25(OH)2D3”. In the series “in vivo”, this compound came in with an MTD of 0.03 mg/kg. Besides, the “VDR Binding” value on VDR is given as 42.10*. In the series on HL-60 cells, the EC50 came to 0.00217 µM. The “down regulation of INF-γ (class symbol)” value with IFN-γ production was “* (good down regulation of INF-γ (e.g., less than 100 IC50 pM))”.
